# Measurements published in patent US7176224B2, “Oxazolyl-aryloxyacetic acid derivatives and their use as PPAR agonists” (Eli Lilly and Company, priority 2000, dated 2007).
# Columns and labels:
# huPPARγ [1] = test: Cotransfection assay in CV-1 cells, luciferase reporter; type: cell-based, human; details: GAL4 chimeric system, relative to agonist reference molecule
# Description: […] binding (ABCD binding) was carried out using SPA technology with PPAR receptors. […] Cotransfection assays were carried out in CV-1 cells. The reporter plasmid contained an acylCoA oxidase (AOX) PPRE and TK promoter upstream of the luciferase reporter cDNA. Appropriate PPARs and RXRα were constitutively expressed using plasmids containing the CMV promoter. […] In order to eliminate such interference, a GAL4 chimeric system was used in which the DNA binding domain of the transfected PPAR was replaced by that of GAL4, and the GAL4 response element was utilized in place of the AOX PPRE. […] Efficacies were determined by computer fit to a concentration-response curve, or in some cases at a single high concentration of agonist (10 μM). For binding or cotransfection studies with receptors other than PPARs, similar assays were carried out using appropriate ligands, receptors, reporter constructs, etc., for that particular receptor.
# (§1) These studies were carried out to evaluate the ability of compounds of the invention to bind to and/or activate various nuclear transcription factors, particularly huPPARα (“hu” indicates “human”) and huPPARγ. These studies provide in vitro data concerning efficacy and selectivity of compounds of the invention. Furthermore, binding and cotransfection data for compounds of the invention were compared with corresponding data for marketed compounds that act on either huPPARα or huPPARγ.
# huPPARα [2] = molecular target: T1, huPPARα (Homo sapiens, UniProt Q07869); test: DNA-dependent binding (ABCD binding), SPA, radioligand displacement; details: tritium-labeled PPARα agonist radioligand
# T1 sequence (Q07869 1-468): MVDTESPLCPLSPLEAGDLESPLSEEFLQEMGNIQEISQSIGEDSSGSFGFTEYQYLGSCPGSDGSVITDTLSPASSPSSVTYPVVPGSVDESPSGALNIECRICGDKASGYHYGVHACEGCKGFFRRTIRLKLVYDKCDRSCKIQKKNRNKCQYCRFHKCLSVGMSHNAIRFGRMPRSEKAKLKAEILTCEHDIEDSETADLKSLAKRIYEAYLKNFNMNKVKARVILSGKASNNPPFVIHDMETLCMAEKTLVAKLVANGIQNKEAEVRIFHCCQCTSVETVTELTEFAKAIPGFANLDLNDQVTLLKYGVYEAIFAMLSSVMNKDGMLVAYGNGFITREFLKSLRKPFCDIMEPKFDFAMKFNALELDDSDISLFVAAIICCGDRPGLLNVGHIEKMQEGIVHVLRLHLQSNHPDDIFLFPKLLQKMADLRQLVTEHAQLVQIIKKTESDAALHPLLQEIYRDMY
# T1 sequence (P19793 1-462 partner): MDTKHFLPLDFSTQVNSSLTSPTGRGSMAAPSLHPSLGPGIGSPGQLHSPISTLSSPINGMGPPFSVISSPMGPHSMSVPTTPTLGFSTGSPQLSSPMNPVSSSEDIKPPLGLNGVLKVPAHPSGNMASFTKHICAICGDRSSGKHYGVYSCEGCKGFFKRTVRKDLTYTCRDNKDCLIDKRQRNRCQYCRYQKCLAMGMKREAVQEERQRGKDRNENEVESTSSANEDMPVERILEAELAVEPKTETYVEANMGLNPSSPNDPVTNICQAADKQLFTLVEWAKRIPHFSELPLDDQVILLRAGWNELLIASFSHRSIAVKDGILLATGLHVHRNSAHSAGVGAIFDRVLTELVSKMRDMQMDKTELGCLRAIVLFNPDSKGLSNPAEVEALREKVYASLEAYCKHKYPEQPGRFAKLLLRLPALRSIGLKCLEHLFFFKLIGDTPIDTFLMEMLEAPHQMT
# Description: (§2) […] binding (ABCD binding) was carried out using SPA technology with PPAR receptors. Tritium-labeled PPARα and PPARγ agonists were used as radioligands for generating displacement curves and IC50 values with compounds of the invention. Cotransfection assays were carried out in CV-1 cells. The reporter plasmid contained an acylCoA oxidase (AOX) PPRE and TK promoter upstream of the luciferase reporter cDNA. Appropriate PPARs and RXRα were constitutively expressed using plasmids containing the CMV promoter. […] In order to eliminate such interference, a GAL4 chimeric system was used in which the DNA binding domain of the transfected PPAR was replaced by that of GAL4, and the GAL4 response element was utilized in place of the AOX PPRE. Cotransfection efficacy was determined relative to PPARα agonist and […] reference molecules. Efficacies were determined by computer fit to a concentration-response curve, or in some cases at a single high concentration of agonist (10 μM). For binding or cotransfection studies with receptors other than PPARs, similar assays were carried out using appropriate ligands, receptors, reporter constructs, etc., for that particular receptor.
# as §1
# huPPARγ [3] = molecular target: T2, huPPARγ (Homo sapiens, UniProt P37231); test: as above; details: tritium-labeled PPARγ agonist radioligand
# T2 sequence (P37231 1-505): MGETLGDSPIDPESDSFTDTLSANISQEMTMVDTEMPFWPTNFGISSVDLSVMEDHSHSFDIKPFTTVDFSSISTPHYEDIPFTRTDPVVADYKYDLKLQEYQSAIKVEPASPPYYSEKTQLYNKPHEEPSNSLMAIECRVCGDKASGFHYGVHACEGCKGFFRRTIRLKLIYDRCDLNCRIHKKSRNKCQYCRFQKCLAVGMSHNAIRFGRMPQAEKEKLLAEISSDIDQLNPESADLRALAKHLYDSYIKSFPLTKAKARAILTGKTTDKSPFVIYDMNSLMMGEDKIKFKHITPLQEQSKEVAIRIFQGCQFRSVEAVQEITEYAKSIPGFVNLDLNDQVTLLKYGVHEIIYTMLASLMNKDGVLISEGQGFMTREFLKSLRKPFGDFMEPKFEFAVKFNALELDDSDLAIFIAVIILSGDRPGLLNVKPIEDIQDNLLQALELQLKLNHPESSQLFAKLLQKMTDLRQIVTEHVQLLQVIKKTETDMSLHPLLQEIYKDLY
# T2 sequence (P19793 1-462 partner): T1 sequence (P19793 1-462 partner)
# Description: as §2, §1
# huPPARα [4] = test: Cotransfection assay in CV-1 cells, luciferase reporter; type: cell-based, human; details: GAL4 chimeric system, relative to PPARα agonist reference molecule
# Description: […] binding (ABCD binding) was carried out using SPA technology with PPAR receptors. Tritium-labeled PPARα and PPARγ agonists were used as radioligands for generating displacement curves and IC50 values with compounds of the invention. Cotransfection assays were carried out in CV-1 cells. The reporter plasmid contained an acylCoA oxidase (AOX) PPRE and TK promoter upstream of the luciferase reporter cDNA. Appropriate PPARs and RXRα were constitutively expressed using plasmids containing the CMV promoter. For PPARα and […], interference by endogenous […] in CV-1 cells was an issue. In order to eliminate such interference, a GAL4 chimeric system was used in which the DNA binding domain of the transfected PPAR was replaced by that of GAL4, and the GAL4 response element was utilized in place of the AOX PPRE. Cotransfection efficacy was determined relative to PPARα agonist and […] reference molecules. Efficacies were determined by computer fit to a concentration-response curve, or in some cases at a single high concentration of agonist (10 μM). For binding or cotransfection studies with receptors other than PPARs, similar assays were carried out using appropriate ligands, receptors, reporter constructs, etc., for that particular receptor.
# as §1
Structure (SMILES),huPPARγ CTF Efficacy (huPPARγ [1]) [%],IC50 (huPPARα [2]) [nM],IC50 (huPPARγ [3]) [nM],huPPARα CTF Efficacy (huPPARα [4]) [%]
"COc1cc(CC(C)(Oc2ccccc2)C(=O)O)ccc1OCCc1nc(-c2ccc(-c3ccccc3)cc2)oc1C (stereo not drawn) [Example 7, 3-{4-[2-(2-Biphenyl-4-yl-5-methyloxazol-4-yl)ethoxy]-3-methoxyphenyl}-2-methyl-2-phenoxypropionic acid]",93,4120,174,60
"COc1cc(CC(C)(Oc2ccccc2)C(=O)O)ccc1OCCc1nc(-c2cccc(-c3ccccc3)c2)oc1C (stereo not drawn) [Example 8, 3-{4-[2-(2-Biphenyl-3-yl-5-methyloxazol-4-yl)ethoxy]-3-methoxyphenyl}-2-methyl-2-phenoxypropionic acid]",91,605,41,45
"Cc1oc(-c2ccc(-c3ccccc3)cc2)nc1CCOc1ccc(CC(C)(Oc2ccc(C(C)(C)C)cc2)C(=O)O)cc1 (stereo not drawn) [Example 15, 3-{4-[2-(2-Biphenyl-4-yl-5-methyl-oxazol-4-yl)-ethoxy]-phenyl}-2-methyl-2-(4-tert-butylphenoxy)-propionic acid]",90,196,107,96
"Cc1oc(-c2ccc(-c3cccs3)cc2)nc1CCOc1ccc(CC(C)(Oc2ccc(C(C)(C)C)cc2)C(=O)O)cc1 (stereo not drawn) [Example 17, 2-Methyl-3-(4-{2-[5-methyl-2-(4-thiophen-2-yl-phenyl)-oxazol-4-yl]-ethoxy}-phenyl)-2-(4-tert-butylphenoxy)-propionic acid]",80,186,119,116
"Cc1oc(-c2ccc(-c3cccs3)cc2)nc1CCOc1ccc(CC(C)(Oc2cccc(F)c2)C(=O)O)cc1 (stereo not drawn) [Example 22, 2-(3-Fluoro-phenoxy)-2-methyl-3-(4-{2-[5-methyl-2-(4-thiophen-2-yl-phenyl)-oxazol-4-yl]-ethoxy}-phenyl)-propionic acid]",100,260,78,63
"Cc1oc(-c2cccc(-c3cccs3)c2)nc1CCOc1ccc(CC(C)(Oc2ccc(Cl)cc2)C(=O)O)cc1 (stereo not drawn) [Example 26, 2-(4-Chlorophenoxy)-2-methyl-3-(4-{2-[5-methyl-2-(3-thiophen-2-yl-phenyl)-oxazol-4-yl]-ethoxy}-phenyl)-propionic acid]",100,159,55,54
"Cc1ccc(OC(C)(Cc2ccc(OCCc3nc(-c4ccc(-c5ccccc5)cc4)oc3C)cc2)C(=O)O)cc1C (stereo not drawn) [Example 34, 3-{4-[2-(2-Biphenyl-4-yl-5-methyl-oxazol-4-yl)-ethoxy]-phenyl}-2-(3,4-dimethyl-phenoxy)-2-methyl-propionic acid]",95,165,40,61
"CCC(Cc1ccc(OCCc2nc(-c3cccc(-c4ccccc4)c3)oc2C)cc1)(Oc1ccccc1)C(=O)O (stereo not drawn) [Example 41, 2-{4-[2-(2-Biphenyl-3-yl-5-methyl-oxazol-4-yl)-ethoxy]-benzyl}-2-phenoxy-butyric acid]",108,402,45,44
"CCC(Cc1ccc(OCCc2nc(-c3cccc(-c4cccs4)c3)oc2C)cc1)(Oc1ccccc1)C(=O)O (stereo not drawn) [Example 42, 2-(4-{2-[5-Methyl-2-(3-thiophen-2-yl-phenyl)-oxazol-4-yl]-ethoxy}-benzyl)-2-phenoxy-butyric acid]",105,310,56,49
"CC(C)(Oc1ccc(C(=O)c2ccc(Cl)cc2)cc1)C(=O)O [Fenofibric acid, reference compound]",0,–,–,16
"Cc1c(C)c2c(c(C)c1O)CCC(C)(COc1ccc(CC3SC(=O)NC3=O)cc1)O2 (stereo not drawn) [Troglitazone, reference compound]",–,–,–,0
